# Test results as given in patent US10723706B2, “Perk inhibitors and uses thereof in treating diseases associated with aggregation-prone proteins” (Ramot at Tel-Aviv University Ltd., priority 2016, dated 2020).
# How the values were obtained:
# [1] = tested on: cells; experiment: Intrinsic cytotoxicity on cells; assay type: cell-based
# [2] = tested on: STHdhQ111/111 cells; experiment: Rescue from UPR-induced cell death (tunicamycin), PI cell cycle FACS, sub-G0/G1 fraction; assay type: cell-based; settings: Tun for 48 hours
# Method: (§1) STHdhQ7/7 and STHdhQ111/111 cells were grown as described in Leitman et al. [PLoS One 2014, 9(3):e90803].
# After the indicated treatment times in full medium or in DMEM without serum, cells were incubated with propidium iodide (PI) solution ([…]) and read by flow cytometry as described in Leitman et al. [PLoS One 2014, 9(3):e90803]. Cells in sub-G0/G1 were counted as apoptotic/dead cells.
# The activity of the novel inhibitors, compared to A4, in preventing cytotoxicity induced by pathogenic Htt, was then tested. A stable murine striatal cell line expressing full-length polyQ-expanded Htt, STHdhQ^111/111, was used.
# [3] = target: T1, RIPK1 (Homo sapiens, UniProt Q13546); settings: Rojas-Rivera et al. 2017; cited from earlier work
# T1 sequence (Q13546 1-671): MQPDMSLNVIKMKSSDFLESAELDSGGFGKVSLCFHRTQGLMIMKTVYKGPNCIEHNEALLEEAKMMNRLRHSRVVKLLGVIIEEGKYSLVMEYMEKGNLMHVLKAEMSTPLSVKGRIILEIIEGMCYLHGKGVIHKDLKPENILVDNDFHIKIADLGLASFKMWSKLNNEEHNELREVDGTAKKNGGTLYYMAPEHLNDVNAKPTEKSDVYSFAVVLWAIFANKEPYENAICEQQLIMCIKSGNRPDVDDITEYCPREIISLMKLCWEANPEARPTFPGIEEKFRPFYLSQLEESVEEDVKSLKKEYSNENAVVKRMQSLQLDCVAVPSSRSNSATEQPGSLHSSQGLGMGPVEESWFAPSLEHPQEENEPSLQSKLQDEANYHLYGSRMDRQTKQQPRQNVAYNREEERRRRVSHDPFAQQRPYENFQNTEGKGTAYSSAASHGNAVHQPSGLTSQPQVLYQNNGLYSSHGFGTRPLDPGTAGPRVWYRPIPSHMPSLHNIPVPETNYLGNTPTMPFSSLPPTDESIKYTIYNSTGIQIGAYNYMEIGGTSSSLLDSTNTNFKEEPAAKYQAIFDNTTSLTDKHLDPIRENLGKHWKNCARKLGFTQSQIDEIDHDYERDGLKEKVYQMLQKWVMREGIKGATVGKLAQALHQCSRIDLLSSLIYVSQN
# [4] = target: T2, PKR (eIF2αK2) (Mus musculus, UniProt Q03963); experiment: PKR activity induced with poly-I:C in cells; assay type: cell-based
# T2 construct: endogenous in cells
# T2 sequence (Q03963 1-515): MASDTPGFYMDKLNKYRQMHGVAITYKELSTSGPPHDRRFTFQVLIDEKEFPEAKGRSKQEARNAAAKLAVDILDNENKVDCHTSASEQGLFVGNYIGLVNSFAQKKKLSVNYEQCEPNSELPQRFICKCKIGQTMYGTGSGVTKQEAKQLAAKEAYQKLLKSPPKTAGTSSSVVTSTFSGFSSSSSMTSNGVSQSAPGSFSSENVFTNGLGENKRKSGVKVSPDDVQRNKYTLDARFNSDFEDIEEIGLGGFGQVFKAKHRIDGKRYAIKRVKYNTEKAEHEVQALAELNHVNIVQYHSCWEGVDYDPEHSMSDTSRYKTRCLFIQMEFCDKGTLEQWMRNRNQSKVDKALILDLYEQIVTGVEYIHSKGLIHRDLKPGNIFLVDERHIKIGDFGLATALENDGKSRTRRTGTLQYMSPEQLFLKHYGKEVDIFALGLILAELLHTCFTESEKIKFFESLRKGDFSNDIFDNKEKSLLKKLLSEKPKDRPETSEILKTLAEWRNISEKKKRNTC
# Method: (§2) Cells were treated with Tun ([…]) or with A4, PKRi, poly-I:C or exemplary PERK inhibitors of the present embodiments, by adding the tested compound to the cell medium at the indicated concentrations and times. Cell lysis and immunoblotting was performed as described in Leitman et al. [PLoS One 2014, 9(3):e90803].
# [5] = target: T3, PERK (eIF2αK3) (Mus musculus, UniProt Q9Z2B5); experiment: ER stress-mediated eIF2α phosphorylation in tunicamycin-treated striatal cells (immunoblotting); assay type: cell-based, murine; settings: STHdhQ7/7 cells, Tun 5 μg/ml for 48 hours; A4 50 μM, PKRi 1 μM
# T3 construct: endogenous in cells; host or cells: STHdhQ7/7 murine striatal cells
# T3 sequence (Q9Z2B5 29-1114): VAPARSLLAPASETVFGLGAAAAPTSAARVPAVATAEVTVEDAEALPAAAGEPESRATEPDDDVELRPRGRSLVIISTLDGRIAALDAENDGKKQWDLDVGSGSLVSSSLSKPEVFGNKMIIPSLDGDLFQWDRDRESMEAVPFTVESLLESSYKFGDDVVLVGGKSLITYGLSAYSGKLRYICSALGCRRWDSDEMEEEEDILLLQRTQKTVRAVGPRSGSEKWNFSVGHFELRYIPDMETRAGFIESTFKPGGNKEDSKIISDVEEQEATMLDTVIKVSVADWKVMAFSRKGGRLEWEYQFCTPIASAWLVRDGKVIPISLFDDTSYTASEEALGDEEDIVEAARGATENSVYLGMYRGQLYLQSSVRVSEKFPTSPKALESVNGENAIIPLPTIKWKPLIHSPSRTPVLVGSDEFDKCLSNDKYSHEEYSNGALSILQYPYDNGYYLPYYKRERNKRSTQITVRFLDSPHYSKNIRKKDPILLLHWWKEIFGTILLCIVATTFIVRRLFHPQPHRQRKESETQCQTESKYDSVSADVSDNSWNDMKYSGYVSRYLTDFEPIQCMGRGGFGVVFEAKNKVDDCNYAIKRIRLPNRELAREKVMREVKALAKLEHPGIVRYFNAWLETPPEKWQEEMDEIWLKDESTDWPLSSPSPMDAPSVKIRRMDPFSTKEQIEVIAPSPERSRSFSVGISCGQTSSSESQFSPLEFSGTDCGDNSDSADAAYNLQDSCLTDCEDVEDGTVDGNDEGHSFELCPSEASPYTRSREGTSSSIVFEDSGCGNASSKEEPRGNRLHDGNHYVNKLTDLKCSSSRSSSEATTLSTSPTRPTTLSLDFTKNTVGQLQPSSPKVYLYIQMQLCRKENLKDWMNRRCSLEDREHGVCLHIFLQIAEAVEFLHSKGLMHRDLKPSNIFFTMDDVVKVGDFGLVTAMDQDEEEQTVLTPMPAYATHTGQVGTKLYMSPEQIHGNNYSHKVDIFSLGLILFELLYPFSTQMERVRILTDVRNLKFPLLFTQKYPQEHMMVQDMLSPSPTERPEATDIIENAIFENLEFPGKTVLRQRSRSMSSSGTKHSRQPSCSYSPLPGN
# Method: as §1, §2
# As the activity of PERK was particularly affected in the Huntington's disease (HD) models [Leitman et al., PLoS One 2014, 9(3):e90803], the therapeutic capacity of a PERK inhibitor named A4 [Wang et al., Chem Biol Drug Des 2010, 76:480-495] was tested in cells expressing polyQ-expanded Htt, as depicted in Background art FIG. 1.
# [6] = tested on: betaTC-tet pancreatic islet beta-cell line; experiment: Toxicity in pancreatic beta cells; assay type: cell-based, mouse; settings: betaTC-tet cells, tested concentration range up to 500 nm
# Method: MK-28 toxicity was tested in pancreatic beta cells, the type of cell that is most sensitive when ER stress response pathways are affected. A conditionally transformed mouse pancreatic islet beta-cell line (betaTC-tet), such as described by Efrat [Ann NY Acad Sci 1999, 875:286-293], was used. These cells produce high amounts of insulin, resulting in a high protein load in the ER, making them very sensitive to ER stress and other stimuli, such as cytokine effects. Compromising any of the UPR branches leads to cytotoxicity in these cells. MK-28 was compared to the ER stressor tunicamycin (Tun).
compound,measurement,setting,value
"COc1cc(/C=N\N(C)c2nc(-c3ccccc3)cc(-c3ccccc3)n2)ccc1O [Compound 1, 2-{N-methyl-N′-(3-methoxy-4-hydroxybenzylidene)hydrazinyl}-4,6-diphenylpyrimidine]",intrinsic cytotoxicity on cells,[1],neither MPGL1 nor MK-28 exhibited intrinsic cytotoxicity
same,rescue from UPR-induced cell death (cytotoxicity),[2],more potent than A4
Cn1cc(-c2ccc3c(c2)CCN3C(=O)Cc2cccc(C(F)(F)F)c2)c2c(N)ncnc21 [GSK2606414],inhibition of RIPK1,[3],potent inhibitors of RIPK1
Cc1cccc(CC(=O)N2CCc3c2ccc(-c2cn(C)c4ncnc(N)c24)c3F)n1 [GSK2656157],inhibition of RIPK1,[3],potent inhibitors of RIPK1
"O=C1Nc2ccc3ncsc3c2/C1=C/c1cnc[nH]1 [PKRi, reference compound]",rescue from UPR-induced cell death (cytotoxicity),[2],had no effect
same,rescue from UPR-induced cell death (cytotoxicity),[2]; listed as PKR inhibitor,no effect
same,inhibition of PKR activity,[4],inhibited
same,inhibition of ER stress-mediated eIF2α phosphorylation,[5],not by PKRi
Tunicamycin [reference compound],toxicity in pancreatic beta cells,[6],toxic
